Experiments:
Assay type in all cases: in vivo
[1] = tested on: Chenopodium album (CHEAL), Abutilon theophrasti (ABUTH), Setaria viridis (SETVI), Xanthium strumarium (XANST); assay: Glasshouse weed kill, fomesafen with Phosflex 31L and comparison adjuvants
Description: (§1) Unless otherwise stated within a specific Example, all aromatic phosphate esters employed were initially formulated as 20% w′w emulsions containing 2% w/w Gohsenol®GLO3 (a polyvinyl alcohol, Nippon Gohsei, Hull, UK) and 2% Pluronic® PE10500 (an ethylene glycol-propylene glycol block copolymer, BASF Aktiengesellschaft, Ludwighsafen, Germany) as surfactants.
The efficacy of the aromatic phosphate ester Phosflex®31L (isopropylated triphenyl phosphate) as an adjuvant for the herbicide fomesafen was tested against four weed species in the glasshouse and compared to the well-known tank mix adjuvant Turbocharge® as well as to a aromatic ester lacking the a phosphate moiety, butylene glycol benzoate. An agrochemical composition was prepared containing 0.5% v/v of the adjuvant Turbocharge with the test compound in a track sprayer, and was applied at a volume of 200 litres per hectare. Fomesafen was applied at a rate of either 60 or 120 grams per hectare. The other adjuvants were applied at a rate of 0.2% v/v. Fomesafen was applied to weeds which had been grown to the 1.3 or 1.4 leaf stage. […]
(§2) Each spray test was replicated three times. The efficacy of the herbicide was assessed visually and expressed as a percentage of the leaf area killed. Samples were assessed at time periods of 7, 14 and 21 days following application. […]

[2] = tested on: Alopecurus myosuroides (ALOMY), Avena fatua (AVEFA), Lolium perenne (LOLPE), Setaria viridis (SETVI); assay: Glasshouse weed kill, pinoxaden with tricresyl phosphate, Phosflex 362, triphenyl phosphate; settings: pinoxaden 7.5 or 15 g/ha, 200 l/ha; TEHP 0.5% v/v, other adjuvants 0.2% v/v; leaf area killed; mean over two rates, three replicates, four weeds, 14 and 21 days
Description: as §1
The efficacy of the aromatic phosphate esters tricresyl phosphate, Phosflex®362 (2-ethylhexyl diphenyl phosphate) and triphenyl phosphate were tested in a glasshouse against four weed species using the herbicide pinoxaden. An agrochemical composition was prepared containing 0.5% v/v of the adjuvant TEHP in a track sprayer and was applied at a volume of 200 litres per hectare. The other adjuvants were tested at a rate of 0.2% v/v. Pinoxaden was applied at either 7.5 or 15 grams per hectare on each of the weed species. The weed species and their growth stage at spraying were Alopecurus myosuroides (ALOMY; growth stage 13), Avena fatua (AVEFA; growth stage 12); Lolium perenne (LOLPE; growth stage 13), Setaria viridis (SETVI; growth stage 14).
(§3) Each spray test was replicated three times. The efficacy of the herbicide was assessed visually and expressed as a percentage of the leaf area killed. Samples were assessed at time periods of 14 and 21 days following application. […]

[3] = tested on: Alopecurus myosuroides (ALOMY), Avena fatua (AVEFA), Lolium perenne (LOLPE), Setaria viridis (SETVI); assay: Glasshouse weed kill, pinoxaden with Phosflex 31L and comparison adjuvants; settings: pinoxaden 7.5 or 15 g/ha, 200 l/ha; TEHP 0.5% v/v, other adjuvants 0.2% v/v; leaf area killed; mean over two rates, three replicates, four weed species, 14 and 21 days
Experimental: as §1
The efficacy of the aromatic phosphate ester Phosflex®31L (isopropylated triphenyl phosphate) as an adjuvant was tested in a glasshouse against four weed species using the herbicide pinoxaden. An agrochemical composition was prepared containing 0.2% v/v of the adjuvant in a track sprayer and was applied at a volume of 200 litres per hectare. Pinoxaden was applied at either 7.5 or 15 grams of pesticide per hectare on each of the weed species. The adjuvant TEHP was tested at a different rate from the other adjuvants, it being used at 0.5% v/v. The weed species and their growth stage at spraying were Alopecurus myosuroides (ALOMY; growth stage 13), Avena fatua (AVEFA; growth stage 12); Lolium perenne (LOLPE; growth stage 13), Setaria viridis (SETVI; growth stage 14).
as §3

[4] = tested on: Chenopodium album (CHEAL), Abutilon theophrasti (ABUTH), Setaria viridis (SETVI), Xanthium strumarium (XANST); assay: Glasshouse weed kill, fomesafen with tricresyl phosphate, Phosflex 362, triphenyl phosphate; settings: fomesafen 60 or 120 g/ha, 200 l/ha; Turbocharge 0.5% v/v, other adjuvants 0.2% v/v; leaf area killed; mean over two rates, three replicates, four weeds, 7, 14 and 21 days
Description: as §1
The efficacy of the aromatic phosphate esters tricresyl phosphate, Phosflex®362 (2-ethylhexyl diphenyl phosphate) and triphenyl phosphate as adjuvants were tested in a glasshouse against four weed species using the herbicide fomesafen. An agrochemical composition was prepared containing 0.5% v/v of the adjuvant Turbocharge® in a track sprayer and was applied at a volume of 200 litres per hectare. The other adjuvants were tested at a rate of 0.2% v/v. Fomesafen was applied at a rate of either 60 or 120 grams per hectare on weeds which had been grown to the 1.3 or 1.4 leaf stage. […]
as §2

[5] = tested on: Abutilon theophrasti (ABUTH), Chenopodium album (CHEAL), Digitaria sanguinalis (DIGSA), Setaria viridis (SETVI); assay: Glasshouse weed kill, nicosulfuron with Phosflex 31L and comparison adjuvants; settings: nicosulfuron 30 or 60 g/ha, 200 l/ha; Atplus 411F 0.5% v/v, other adjuvants 0.2% v/v; leaf area killed; mean over two rates, three replicates, four weed species, 14 and 21 days
Description: as §1
The efficacy of the aromatic phosphate ester Phosflex®31L (isopropylated triphenyl phosphate) as an adjuvant for the herbicide nicosulfuron was tested against four weed species in the glasshouse and compared to the well-known tank mix adjuvant Atplus®411F as well as to a aromatic ester lacking the a phosphate moiety, butylene glycol benzoate. An agrochemical composition was prepared containing 0.5% v/v of the adjuvant Atplus 411F with the test compound in a track sprayer, and was applied at a volume of 200 litres per hectare. The other adjuvants were used at a rate of 0.2% v/v. Nicosulfuron was applied at a rate of either 30 or 60 grams per hectare. Nicosulfuron was applied to weeds which had been grown to the 1.3 or 1.4 leaf stage. […]
as §3

[6] = tested on: Chenopodium album (CHEAL), Abutilon theophrasti (ABUTH), Setaria viridis (SETVI), Digitaria sanguinalis (DIGSA); assay: Glasshouse weed kill, nicosulfuron with tricresyl phosphate, Phosflex 362, triphenyl phosphate; settings: four weed species; for efficacy as adjuvant for nicosulfuron (in words): adjuvant 0.2% v/v, conclusion from Table 7
Description: as §1
The efficacy of the aromatic phosphate esters tricresyl phosphate, Phosflex®362 (2-ethylhexyl diphenyl phosphate) and triphenyl phosphate were tested in a glasshouse against four weed species using the herbicide nicosulfuron. An agrochemical composition was prepared containing 0.5% v/v of the adjuvant Atplus® 411F in a track sprayer, and was applied at a volume of 200 litres per hectare. The other adjuvants were tested at a arte of 0.2% v/v. Nicosulfuron was applied at a rate of either 30 or 60 grams of pesticide per hectare to weeds which had been grown to the 1.3 or 1.4 leaf stage. The weed species were Chenopodium album (CHEAL), Abutilon theophrasti (ABUTH), Setaria viridis (SETVI) and Digitaria sanguinalis (DIGSA).
Each spray test was replicated three times. The efficacy of the herbicide was assessed visually and expressed as a percentage of the leaf area killed. Samples were assessed at time periods of 14 and 21 days following application. The results shown in Table 7 below are mean averages over the two rates of nicosulfuron, three replicates, four weed species and the two assessment timings, and are compared to the efficacy of nicosulfuron in the absence of adjuvant and nicosulfuron in the presence of the known tank mix adjuvant Atplus®411F.

[7] = tested on: Polygonum convolvulus (POLCO), Brachiaria platyphylla (BRAPL), Digitaria sanguinalis (DIGSA), Ambrosia artemisiifolia (AMBAR); assay: Glasshouse weed kill, mesotrione with Phosflex 31L and comparison adjuvants; settings: mesotrione 30 or 60 g/ha, 200 l/ha; Tween 20 0.5% v/v, other adjuvants 0.2% v/v; mean over two rates, three replicates, four weed species, three assessment timings
Description: as §1
The efficacy of the aromatic phosphate ester Phosflex®31L (isopropylated triphenyl phosphate) as an adjuvant for the herbicide mesotrione was tested against four weed species in the glasshouse and compared to the known adjuvant Tween®20 as well as to a aromatic ester lacking the a phosphate moiety, butylene glycol benzoate. An agrochemical composition was prepared containing 0.5% v/v of the adjuvant Tween®20 with the test compound in a track sprayer, and was applied at a volume of 200 litres per hectare. The other adjuvants were tested at a rate of 0.2% v/v. Mesotrione was applied at a rate of either 30 or 60 grams per hectare to weeds which had been grown to the 1.3 or 1.4 leaf stage. The weed species were Polygonum convolvulus (POLCO), Brachiaria platyphylla (BRAPL), Digitaria sanguinalis (DIGSA) and Ambrosia artemisiifolia (AMBAR) […]

[8] = tested on: Polygonum convolvulus (POLCO), Brachiaria platyphylla (BRAPL), Digitaria sanguinalis (DIGSA), Amaranthus tuberculatus (AMATU); assay: Glasshouse weed kill, mesotrione with tricresyl phosphate, Phosflex 362, triphenyl phosphate; settings: mesotrione 60 or 120 g/ha, 200 l/ha; Turbocharge 0.5% v/v, other adjuvants 0.2% v/v; leaf area killed; mean over two rates, three replicates, four weeds, 7, 14 and 21 days
Septoria tritici [9] = settings: S. tritici on wheat, adjuvant 0.2% v/v, conclusion from Table 1
Septoria tritici [10] = settings: S. tritici on wheat, adjuvant 0.2% v/v, conclusion from Table 2

In the case of `O=C(OCCCCO)c1ccccc1` [the ester lacking the phosphate moiety, butylene glycol benzoate], the “efficacy as adjuvant for fomesafen (in words)” value ([1]; four weed species, adjuvant 0.2% v/v, conclusion from Table 4) is reported as “is not”.
`CCc1cc(C)cc(CC)c1-c1c(OC(=O)C(C)(C)C)n2n(c1=O)CCOCC2` [Pinoxaden, pinoxaden] was tested, and the “Mean percentage kill, Mean across species” value (shortened to “Mean percentage kill”) [2] was 16.0 C % and the “Mean percentage kill” value [3] was 17.4 D %.
For `CS(=O)(=O)NC(=O)c1cc(Oc2ccc(C(F)(F)F)cc2Cl)ccc1[N+](=O)[O-]` [Fomesafen, fomesafen], the “Mean percentage kill” value [4] was 14.3% and the “Mean percentage kill” value ([1]; fomesafen 60 or 120 g/ha, 200 l/ha, Turbocharge 0.5% v/v, other adjuvants 0.2% v/v, leaf area killed, mean over two rates, three replicates, four weed species, 7, 14 and 21 days) was 37.7 C %.
With `COc1cc(OC)nc(NC(=O)NS(=O)(=O)c2ncccc2C(=O)N(C)C)n1` [Nicosulfuron, nicosulfuron] the “Mean percentage kill” value [5] was 74.9 B % and the “Mean percentage kill” value ([6]; nicosulfuron 30 or 60 g/ha, 200 l/ha, Atplus 411F 0.5% v/v, other adjuvants 0.2% v/v, leaf area killed, mean over two rates, three replicates, 14 and 21 days) was 42.5%.
`CS(=O)(=O)c1ccc(C(=O)C2C(=O)CCCC2=O)c([N+](=O)[O-])c1` [Mesotrione, mesotrione] was tested, and the “Mean percentage kill” value [7] was 47.2 B % and the “Mean percentage kill” value [8] was 34.0 A %.
With `CCCCC(CC)COP(=O)(Oc1ccccc1)Oc1ccccc1` (stereo not shown) [Phosflex®362, 2-ethylhexyl diphenyl phosphate] the “efficacy as adjuvant for isopyrazam (in words)” value (Septoria tritici [9]) was “more efficacious as an adjuvant than any of the other compounds tested”, the “efficacy as adjuvant for nicosulfuron (in words)” value [6] was “performing particularly well” and the “efficacy as adjuvant for cyproconazole (in words)” value (Septoria tritici [10]) was “performed best as an adjuvant out of the compounds tested”.
“tricresyl phosphate [tricresylphosphate]” was tested, and the “efficacy as adjuvant for nicosulfuron (in words)” value [6] was “performing particularly well”.
